“Also recorded” adds a separate entry of the source.
Key:
Type in all cases: in vivo, mouse
CaMKII = test: phosphorylation of phospholamban (PLB) at threonine-17 in whole heart lysates exposed to isoproterenol; settings: exposed to isoproterenol (ISO), FIG. 3
Description: FIG. 3 provides a chart, a capillary Western image, and a plot showing the effects of the indicated constructs, which are described in FIG. 2D, on CaMKII activity in vivo. To confirm suppression of CaMKII activation in vivo, phosphorylation of phospholamban (PLB) at threonine-17, a known target of CaMKII, was analyzed from whole heart lysates. The middle panel of FIG. 3 provides a capillary Western image showing glyceraldehyde-3-phosphate dehydrogenase polypeptide (GAPDH) expression in cells contacted (+) or not contacted (−) with isoproterenol (ISO), as well as the levels of phosphorylated PLB (pPLB) and non-phosphorylated PLB (PLB). The right panel of FIG. 3 provides a plot showing the ratio of pPLB to PLB in hearts treated with no ISO or with ISO and mCherry (the “ISO” sample), AIP, AIP×5, AIP-FKBP12.6, CN19o, CN19oX3, or CN19o-FKBP12.6, which are described in FIG. 2D.
To confirm suppression of CaMKII activation in vivo, phosphorylation of phospholamban (PLB) at threonine-17, a known target of CaMKII, was evaluated in heart tissue from mice and whole heart lysates exposed to isoproterenol (ISO) (FIG. 3). Exposure of cardiac cells to ISO induced phosphorylation of PLB by CaMKII (FIG. 3).

[1] = tested on: RYR2^R176Q/QT and RYR2^R4560I/WT mice; test: Example 3: AAV vectors expressing AIP×5 in CPVT animal models; settings: example written in present tense
Description: FIG. 6 provides a schematic showing administration of AAV vectors to RYR2^R176Q/WT and RYR2^R4560I/WT mice. […]. The top portion of FIG. 6 provides a schematic showing the components of polynucleotides of the AAV vectors. In FIG. 6, ITR represents “inverted terminal repeat,” CASQ2 represents a calsequestrin 2 enhancer, cTnT represents a “cardiac troponin” promoter, an INT represents a hemoglobin enhancer, AIP×5 represents a multimer containing five autocamtide-2-related inhibitory peptide (AIP) units, mScarlet represents the fluorescent polypeptide mScarlet, nls represents a nuclear localization signal, “stop” represents a stop codon, and WPRE represents a Woodchuck Hepatitis Virus (WHV) Posttranscriptional Regulatory Element.
AAV vectors expressing AIP×5 or a negative control AIV vector expressing only mScarlet (see FIG. 6) are prepared and administered to RYR2^R176Q/QT and RYR2^R4560I/WT mice, which are animal models of catecholaminergic polymorphic ventricular tachycardia (CPVT). The efficacy of the vectors in reducing symptoms of CPVT is evaluated in the animal models.

LKB Flox/Flox mice = test: Example 4: beat to beat variation in LKB Flox/Flox mice with NPPA-Cre (atrial fibrillation model); settings: co-injection of NPPA-Cre and AIP×5-mcherry AAV; 2, 4 and 6 weeks
Description: FIGS. 7A and 7B provide plots showing the impact of AIP×5 administration on atrial fibrillation in a mouse model. LKB Flox/Flox mice were double injected with AAV-NPPA-Cre and AAV-AIP×5-mcherry (see FIG. 6). FIG. 7A provides plots showing results from an experiment where mice positive for the LKB1 flanked by LoxP sites (LKB1flox/flox) were injected with either AAV9-NPPA-RFP, AAV9-NPPA-Cre or double injections of AAV9-NPPA-Cre+AAV9-cTnT-AIP×5 at post-natal day 3 (P3). At two week intervals, ECG recordings for 3 minutes were performed under anesthesia. The time difference between two QRS complexes (RR interval) was plotted as a function of the following interval (RR+1). FIG. 7B provides a plot where the standard deviation of the RR intervals for a 1 minute recording was calculated for each animal at the time points shown.
Experiments were undertaken to evaluate the efficacy of AIP×5 administration in treatment of atrial fibrillation. LKB Flox/Flox mice were double injected with NPPA-Cre and AIP×5-mcherry using an AAV vector. The mice were a model for atrial fibrillation. […] It was evaluated whether co-injection with AAV-AIP×5 would reduce AF. Beat to beat variation in HR, an index of AF frequency, was analyzed by plotting each RR interval (R) versus the RR interval of the subsequent beat (RI) (n=˜500 beats) (FIG. 7A). […] HR beat to beat variation was analyzed at 2 weeks, 4 weeks, and 6 weeks.

LKB1 knockout mice = test: Example 5: beat-to-beat variability (EKG) in LKB1 knockout mice (AF model)
Description: (§1) Two different atrial fibrillation (AF) mouse models were used to test the efficacy of AIP×5 at treating AF of different origins. The two different AF mouse models were liver kinase B1 (LKB1) knock out mice and T-box transcription factor 5 (Tbx5) knock out mice.
(§2) LKB1-floxed or Tbx5-floxed mice were used to test the efficacy of AIP×5. AAV-NPPA-Cre was then used to conditionally knock out LKB1 or Tbx5 from the atria of the mice. NPPA is an atria specific promoter, ensuring that Cre recombinase directed knockout of LKB1 or Tbx5 was restricted to the atria. AAV-NPPA-FP (fluorescent protein) was used as a control virus. AAV-NPPA-FP has no Cre, and therefore the gene of interest is not knocked out. Uninjected mice were also included as a control to account for any effects caused by AAV injections. AAV-cTnT-AIP×5 or AAV-cTnT-CN19o were both tested as potential therapies to AF.
(§3) In short, P3 LKB1-floxed or Tbx5-floxed mice were injected (or not injected in the uninjected controls), and then EKG measurements of the mice were taken every two weeks starting at P14. At 12 weeks, the mice were sacrificed, and the sacrificed mice were tested for protein expression.
AF was calculated using the standard deviation of the beat-to-beat timing differences. A high beat-to-beat variability when sedated was indicative of atrial misfiring.
Statistical significance in the tests illustrated in FIGS. 10 and 11 was conducted using a 2-way Anova with post-hoc Dunnett's multiple comparisons to control (FP) group.

Tbx5 knockout mice = test: Example 5: beat-to-beat variability (EKG) in Tbx5 knockout mice (AF model)
Description: as §1, §2, §3
AF was calculated using the standard deviation of the beat-to-beat timing differences. A high beat-to-beat variability when sedated was indicative of atrial misfiring. […]

In the case of “YKKALHRQEAVDALYKKALHRQEAVDALYKKALHRQEAVDALYKKALHRQEAVDALYKKALHRQEAVDAL [AIP×5]”, the “PLB phosphorylation (pPLB to PLB)” value (CaMKII) is reported as “statistically significant decrease in PLB phosphorylation”, the “symptoms of CPVT (ectopy and/or ventricular tachycardia)” value [1] is reported as “reduction in symptoms of CPVT” and the “symptoms of AF (beat to beat variation of RR interval)” value (LKB Flox/Flox mice) is reported as “effective in reducing symptoms of AF”. The “beat-to-beat variability compared to control (non-LKB1 knockout) mice” value (LKB1 knockout mice; 2-way Anova with Dunnett's) was “no statistically significant difference in beat-to-beat variability”, the “suppression of beat-to-beat variability” value (LKB1 knockout mice; AAV-cTnT vector, FIG. 10) was “reduction in beat-to-beat variability; also recorded: effective in suppressing beat-to-beat variability” and the “suppression of beat-to-beat variability” value (Tbx5 knockout mice; AAV-cTnT vector, FIG. 11) was “reduction in beat-to-beat variability; also recorded: effective in suppressing beat-to-beat variability”. For the same sequence, the “beat-to-beat variability, statistical difference to control” value (Tbx5 knockout mice; after week 4) was “no statistically significant difference in beat-to-beat variability”.

Reference: US20250064983A1, “COMPOSITIONS AND METHODS FOR TREATING A CARDIAC DISEASE” (The Children's Medical Center Corporation, priority 2022, published 2025)
